We go through two compounds from patent US9193699B2, “Apoptosis inducing compounds” (INSTITUT NATIONAL DE LA SANTE ET DE LA RECHERCHE MEDICALE …, priority 2011, dated 2015).

Where two headings read alike, the source gives them in different places. Where only a bound is given, the exact number is not on record here.

One may read the IC50 as the point on the concentration scale where inhibition reaches its midpoint.

What all share (format): cell-based
Assay [1] has as its system Human breast tumor SUM149 cells. The experiment in a line: Inhibition of tumor cell growth (alamar blue), SUM149. The settings on record: 120 h. On the procedure:
All biological experiments (Examples 2 to 9) have been performed with recommended cell line specific culture medium. For SUM149 and L226, culture medium is supplemented with 10% Fetal Calf Serum. For HME-1 and MCF-10A, culture medium is supplemented with 5% Horse Serum.
Human breast tumor SUM149 cells (Inflammatory Breast Cancer (IBC) of basal subtype) were plated in a 96 well plate at 3000 cells/100 μL at 37° C. in 5% CO2. Compounds 1, 3, 4, 5, 6, 7, 8, 9, 10, 11, 12, 13, 14 at 10 μM were added at day 0 and day 3. The number of viable cells was determined in triplicate at day 5 by incubating 10 μL of the alamar blue staining solution for 2 hours at 37° C. (FIG. 1).
Human breast tumor SUM149 cells were plated in a 96 well plate at 3000 cells/100 μL at 37° C. in 5% CO2. Serial dilutions of drugs (compounds 1, 3 or 4) ranging from 20 μM to 300 nM were added at day 0 and day 3. The number of viable cells was determined in triplicate at day 5 by incubating 10 μL of the alamar blue staining solution for 2 hours at 37° C. (FIG. 2).
IC50 values of compounds 1-14 for the inhibition of SUM149 and L226 tumor cells growth were measured (according to the experimental procedure of Examples 2 and 3):
Human breast tumor SUM149 cells were plated in a 96 well plate at 3000 cells/100 μL at 37° C. in 5% CO2 in recommended medium containing 10% FCS or in synthetic medium without FCS. Serial dilutions of drug (compound 4) ranging from 10 μM to 0.16 μM were added at day 0 and day 3. The number of viable cells was determined in triplicate at day 5 by incubating 10 μL of the alamar blue staining solution for 2 hours at 37° C. (FIG. 11). The […] in recommended medium containing 10% FCS was measured at 2 μM, while it was measured at 0.6 μM without FCS.
Background: The colour change of resazurin is a common sign of viable cells or microbes.

Assay [2] has as its system Thirty eight validated cells lines. The experiment in a line: High throughput cell growth analysis on cell line panel. The settings on record: panel of cell lines. On the procedure:
Thirty eight validated cells lines, including BXPC3 cells, DU145 cells, OPM2 cells, U-2-OS cells, PLCPRF5 cells, A549 cells, SUM149 cells, HepG2 cells, L389 cells, HGC27 cells, TOV-112D cells, Messa cells, Karpas 299 cells, A498 cells, HCT-116 cells, H1299 cells, Hep2 cells, DLD1 cells, HUT78 cells, AGS cells, A4573 cells, ACHN cells, Panc-1 cells, A375 cells, BT-20 cells, L226 cells, MDAMB231 cells, U118 cells, PC-3 cells, SW579 cells, CLS354-4 cells, Calu-6 cells, U87MG cells, MeWO cells, HUVEC, HME-1 cells, MCF10-A cells and fibroblasts, were plated at 3000 cells/100 μL at 37° C. in 5% CO2 in recommended medium containing 10% FCS.
Compounds 12, 4, 11, 3, 13, 6, 8, 14, 1 and 7, described in the above examples, and DMSO as a control, were tested at various concentrations and % inhibition of cell growth at 10 μM was more particularly studied.

A further assay concerns Cancer stem cells (CSCs). The experiment in a line: Aldefluor assay of cancer stem cells (ALDH+ cells), FACS. On the procedure:
Cancer stem cells (CSCs) are thought to contribute to tumor initiation, maintenance, resistance to therapy, and metastasis progression. Treatment with drugs enrich in resistant CSCs. In vitro, breast CSCs express high level of aldehyde dehydrogenase-1 (ALDH1), which can be detected by using a commercial assay (CSCs are “Aldefluor” positive). Briefly, cells were incubated in Aldefluor assay buffer containing ALDH substrate (BAAA (BODIPY®—aminoacetaldehyde), 1 μmol/L per 1×10^6 cells). Negative control was done in the presence of diethylaminobenzaldehyde (DEAB), a specific ALDH inhibitor. Cells were then incubated for 40 min at 37° C. Cells were analyzed with the LSRII flow cytometer (Becton-Dickinson). PI (Propidium Iodide) exclusion was used to gate viable cells.

Assay [3] concerns Human breast tumor SUM149 cells. Briefly: Annexin V/7-AAD apoptosis with or without Z-VAD-FMK. The settings on record: 2.5 to 20 μM, 48 h, with Z-VAD-FMK pan-caspases inhibitor. The procedure: Human breast tumor SUM149 cells were plated in dishes at a concentration of 10^6 cells/[…] Cells were treated with compound 3 or compound 4 (2.5 to 20 μM) for 48 h, with or without Z-VAD-FMK, a pan-caspases inhibitor. Cells were double stained with annexinV-FITC and 7-AAD to measure cell apoptosis.

Where [4] appears, read: calculated on the basis of cell growth inhibition, day 5, alamar blue, read-out: IC50 for the inhibition of SUM149 tumor cells growth.

`Cc1c(C)c(C)c(S(=O)(=O)N2CCSC(C)(C)[C@@H]2C(=O)NO)c(C)c1C` [Compound 12, (3S)—N-hydroxy-4-[(2,3,4,5,6-pentamethylphenyl)sulfonyl]-2,2-dimethyl-3-thiomorpholine carboxamide]: the IC50 is 2.5 µM in assay [1] (setting [4]) and under 1 µM in assay [2] (recommended medium containing 10% FCS, read-out: IC50 of cell growth inhibition on cell line panel). For the same compound, the “cell lines studied that were sensitive” value in assay [2] is recorded as 86%. For the same compound, the “pool of CSC (ALDH+ cells) after treatment” value with Cancer stem cells (CSCs) (0.6 μM, DMSO control 2.6%) worked out at 0.4%. Further, in the assay on Cancer stem cells (CSCs) (FIG. 12B), the “aldefluor ratio (percent ALDH+ cells treated vs DMSO)” value is “reduces the aldefluor ratio”.

As for `Cc1cc(C)c(C)c(S(=O)(=O)N2CCSC(C)(C)[C@@H]2C(=O)NO)c1C` [Compound 4, (3S)—N-hydroxy-4-[(2,3,5,6-tetramethylphenyl)sulfonyl]-2,2-dimethyl-3-thiomorpholine carboxamide], the IC50 in assay [1] (setting [4]) was 2.5 µM; in assay [1] (recommended medium containing 10% FCS, day 5, read-out: IC50 of SUM149 cell growth in recommended medium) it was 2 µM; in assay [1] (synthetic medium without FCS, day 5, read-out: IC50 of SUM149 cell growth without FCS), 0.6 µM. For the same compound, the “effect of Z-VAD treatment on compound induced apoptosis (Annexin V positive cells)” value in assay [3] was “fully impaired”.
